The text below walks through data of patent US20240003879A1, “METHODS FOR DIAGNOSIS AND MONITORING OF TOXIC EPIDERMAL NECROLYSIS” (INSERM (INSTITUT NATIONAL DE LA SANTÉ ET DE LA RECHERCHE …, priority 2020, published 2024).

“Also recorded” adds a separate entry of the source.

For data set [1], the system named is TCRαβ Skw3 transfectant C2 (TCR of top clone of patient TEN-7). The format is cell-based, human. The following applies: 24 h, heterologous PBMCs from healthy donors, no drug 31.7.
From the text: Skw3 cell lines (Leibniz Institute DSMZ, Brunswick, Germany, (50)) were transduced as described previously (51). […] The resulting retroviruses were used to transduce the TCR-defective Skw3 cell line, which also expresses the human CD8 coreceptor. The TCR-transduced cells outgrowing in selective medium were picked, and the expression of the correct TCR α and β was further assessed by flow cytometry, using a FACS-Canto-I device (BD-Biosciences, San Jose, CA, USA). The transduced cells with stable TCR expression were selected for assessment of reactivity and specificity, which was measured by TCR-induced CD69 expression. Skw3 cell lines expressing the cognate TCR α and β chains were cocultured with autologous EBV-transformed B-lymphoblastoid cell lines (52) at 1:2 ratio at 37° C. Tested drugs were added to the cocultures with the indicated concentrations. After 24 h, cells were stained with anti-human CD3 (Biolegend) and anti-human CD69 (Biolegend) and analysed by flow cytometry. […] Experiments were repeated at least 2 times. […] Then, the productive rearranged TCRα and TCRβ chains were transduced into Skw3 cells, a TCR defective lymphoma line (28) (data not shown). […] The following day, we measured CD69 expression at the surface of Skw3 cells, as marker for TCR stimulation. […]
Data set [2] has as its system Skw3 control transductant 17D (Abacavir-allergic donor). Briefly: TCR-transductant stimulation assay, control transductant 17D. Conditions: control 17D, 24 h, heterologous EBV-transformed B cells, no drug 1.4. The class given is cell-based, human.
From the text: (§1) Skw3 cell lines (Leibniz Institute DSMZ, Brunswick, Germany, (50)) were transduced as described previously (51). […] The resulting retroviruses were used to transduce the TCR-defective Skw3 cell line, which also expresses the human CD8 coreceptor. The TCR-transduced cells outgrowing in selective medium were picked, and the expression of the correct TCR α and β was further assessed by flow cytometry, using a FACS-Canto-I device (BD-Biosciences, San Jose, CA, USA). The transduced cells with stable TCR expression were selected for assessment of reactivity and specificity, which was measured by TCR-induced CD69 expression. Skw3 cell lines expressing the cognate TCR α and β chains were cocultured with autologous EBV-transformed B-lymphoblastoid cell lines (52) at 1:2 ratio at 37° C. Tested drugs were added to the cocultures with the indicated concentrations. After 24 h, cells were stained with anti-human CD3 (Biolegend) and anti-human CD69 (Biolegend) and analysed by flow cytometry. […] Experiments were repeated at least 2 times. […] Heterologous EBV-transformed B cells were also used to stimulate control transductants.
Data set [3] has as its system relapsed or refractory multiple myeloma. The following applies: monotherapy or with dexamethasone or dexamethasone and an immunomodulatory drug; RRMM; doses up to 16 mg/kg intravenous infusion; cited from earlier work.
For data set [4], the system named is NK cells. The following applies: preclinical data; cited from earlier work.
Data set [5] concerns human CD45+ cells (PBMCs from a TEN patient). Briefly: Human PBMC expansion in lamotrigine- versus vehicle-treated NSG recipient mice. The format is in vivo, mouse. As for the experimental part:
NSG animals were adoptively transferred at day 0 with 1.10^6 millions PBMCs collected from a TEN patient, 1 year after disease recovery. Animals were then administrated with lamotrigine (the culprit drug; 0.1 mg/kg/day) or vehicle by oral gavage, every day, from day 4. Results depict the kinetic of human CD45+ cell expansion measured by flow cytometry in the blood of NSG mice throughout the protocol, or the spleen at day 29. Results are expressed as mean and individual % of humanization, calculated according to the following formula: % human CD45+ cells/% (mouse+human) CD45+ cells. Six mice per group were used in this experiment. NSG animals were adoptively transferred at day 0 with 1.10^6 millions PBMCs collected from a TEN patient (1 year after disease recovery) or from a healthy donor. Animals were then administrated with lamotrigine (the culprit drug; 0.1 mg/kg/day) or vehicle, by oral gavage every day, from day 4. Results depict the expansion of human CD45+ cells measured by flow cytometry in the spleen of NSG mice, 29 days after cell transfer. Results are expressed as mean and individual % of humanization, calculated according to the following formula: % human CD45+ cells/% (mouse+human) CD45+ cells. Six mice per group were used in this experiment. NSG animals were adoptively transferred at day 0 with 1.10^6 millions PBMCs collected from a TEN patient (1 year after disease recovery). Animals were then administrated with lamotrigine (the culprit drug; 0.1 mg/kg/day), by oral gavage every day, from day 4. Results depict the expression of CD38 (A) and Granzyme B and Granulysin (B) markers on CD4+ and CD8+ T cells as measured by flow cytometry in the spleen of NSG mice, 43 days after cell transfer. Model description: We generated a surrogate model of TEN disease in mouse, by reconstituting NSG animals with 1.10^6 millions of peripheral blood mononuclear cells (PBMCs) collected from a TEN patient, 1 year after disease recovery. The patients' T cells were then reactivated with the offending drug delivered to animals by oral gavage.

Data set [6] concerns Skw3 control transductant UNO H13 (Sulfamethoxazole-allergic donor). Briefly: TCR-transductant stimulation assay, control transductant UNO H13. Conditions: 24 h, heterologous EBV-transformed B cells, no drug 5.2. The format is cell-based, human.
From the text: as §1
Data set [7] relates to plasmablasts and NK cells. The following applies: cited from earlier work.
Data set [8] has as its system relapsed or refractory multiple myeloma. Conditions: cited from earlier work.

Turning to `COc1ccnc(C[S+]([O-])c2nc3ccc(OC(F)F)cc3[nH]2)c1OC` (centres unmarked) [Pantoprazole], the “% of CD69 expression in CD3+ transfectants, Concentration 2” value in data set [1] (Pantoprazole 10 μg/ml) is 40.1%; in data set [2] (Abacavir 10 μg/ml, Pantoprazole 25 μg/ml), 1.8%. Moreover, the “% of CD69 expression in CD3+ transfectants, Concentration 3” value in data set [1] (Pantoprazole 50 μg/ml) was determined as 47.4%; in data set [2] (Abacavir 20 μg/ml, Pantoprazole 50 μg/ml), 1.7%. The “% of CD69 expression in CD3+ transfectants, Concentration 1” value in data set [2] (Abacavir 1 μg/ml, Pantoprazole 12.5 μg/ml) is on record as 1.8%.
As for “MOR202: fully human anti-CD38 antibody being developed by Morphosys (CAS Number 2197112-39-1)”, in data set [3], the safety and efficacy result is “safe and effective”. For the same molecule, the “effect on NK cells” value in data set [4] is “reduces NK cells”.
As to `Nc1nnc(-c2cccc(Cl)c2Cl)c(N)n1` [lamotrigine], the “expanded CD8+ T cells expressing CD38, Granzyme B and Granulysin markers” value in data set [5] (lamotrigine 0.1 mg/kg/day from day 4, spleen, 43 days after cell transfer (FIG. 11)) is reported as “significant part”. Further, in data set [5] (lamotrigine 0.1 mg/kg/day oral gavage from day 4, TEN patient PBMCs, blood and spleen, day 29 (FIG. 9)), the “number of animals with a high % of humanization, culprit drug group versus vehicle group” value is given as “largely superior”. Moreover, in data set [5] (lamotrigine 0.1 mg/kg/day oral gavage from day 4, spleen, 29 days after cell transfer (FIG. 10)), the “proliferation/expansion of TEN PBMCs versus healthy donor PBMCs in response to lamotrigine” value is “Preferential expansion of TEN PBMCs; also recorded: superior ability of TEN cells to proliferate”.
With `CC(C)Cc1ccc(C(C)C(=O)O)cc1` (centres unmarked) [Ibuprofen], the “% of CD69 expression in CD3+ transfectants, Concentration 1” value in data set [6] (Ibuprofen 20 μg/ml) came out at 4.6%. Moreover, in data set [6] (Ibuprofen 100 μg/ml), the “% of CD69 expression in CD3+ transfectants, Concentration 2” value is on record as 10.5%. For the same molecule, in data set [6] (Ibuprofen 200 μg/ml), the “% of CD69 expression in CD3+ transfectants, Concentration 3” value was 12.4%.
Turning to “TAK-079: CD38-binding fully human IgG 1 λ mAb being developed by Takeda”, the “tolerability in healthy populations” value in data set [7] (healthy populations) is listed as “well tolerated”. For the same molecule, in data set [7] (subcutaneous injection), the “depletion of plasmablasts and NK cells” value was “more durable in depleting plasmablasts and NK cells”. In addition, in data set [8] (heavily pre-treated patients with RRMM, subcutaneous injection), the objective response rate was 43%. In addition, in data set [8] (human, in vivo, sc), the safety/tolerability in patients entry is “safe and well-tolerated”.
